The numbers were not newly measured in article PMC9179904 (Cancers, 2022), which cites them from elsewhere.

The subject of data set [1] is PC-3 PIP and LNCaP tumors. Also on record: method as in PMID 34402925.
On the set-up of data set [2]: method as in PMID 7938477, PMID 9935073.

On to `O=C([O-])CN1CCN(CC(=O)[O-])CCN(CC(=O)NCC2CCC(C(=O)N[C@@H](Cc3ccc4ccccc4c3)C(=O)NCCCC[C@H](NC(=O)N[C@@H](CCC(=O)O)C(=O)O)C(=O)O)CC2)CCN(CC(=O)[O-])CC1.[177Lu+3]` (stereo partly drawn) [^177Lu-PSMA-617], for which, in data set [1], the “Tumor uptake, PC-3 PIP higher than LNCaP tumors” value is recorded as 6–10 fold.

For `S=C([S-])N1CCCC1.S=C([S-])N1CCCC1.[Pb+2]` [^212Pb(PDC)2], the “Internalized alpha particles needed to decrease survival to 37–50%” value in data set [2] was 11.

With ^213Bi-CHX-A-DTPA-HuM195m, the “Internalized alpha particles needed to decrease survival to 37–50%” value in data set [2] is recorded as 1.
